Laboratory results: ChEMBL document CHEMBL1128763, “Synthesis of 2-substituted d-tryptophan-containing peptide derivatives with endothelin receptor antagonist activity” (Bioorg Med Chem Lett, 1995)
pIC50: −log10 of the molar value.

How the values were obtained:
[1] = biological target: T1, Endothelin receptor type B (Homo sapiens, UniProt P24530); test: Functional inhibition of ET-1 induced [Ca2+] increase in human Girardi heart (hGH) cells, which express Endothelin B receptor
T1 sequence (P24530 whole entry): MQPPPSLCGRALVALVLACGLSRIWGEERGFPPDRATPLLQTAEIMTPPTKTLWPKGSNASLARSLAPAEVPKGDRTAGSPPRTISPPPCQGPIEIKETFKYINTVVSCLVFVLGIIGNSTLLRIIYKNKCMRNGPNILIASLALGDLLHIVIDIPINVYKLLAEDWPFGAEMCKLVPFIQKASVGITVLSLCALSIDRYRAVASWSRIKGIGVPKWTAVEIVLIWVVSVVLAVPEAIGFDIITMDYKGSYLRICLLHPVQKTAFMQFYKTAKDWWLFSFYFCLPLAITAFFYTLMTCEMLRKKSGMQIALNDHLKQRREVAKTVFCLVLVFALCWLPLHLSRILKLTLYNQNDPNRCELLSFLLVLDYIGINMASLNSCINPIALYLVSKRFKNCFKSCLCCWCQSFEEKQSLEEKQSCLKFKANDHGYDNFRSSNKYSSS

Endothelin-1 receptor [2] = biological target: T2, Endothelin-1 receptor (Homo sapiens, UniProt P25101); test: Functional inhibition of ET-1 induced [Ca2+] increase in human neuroblastoma-derived SK-N-MC cells, which express Endothelin A receptor; format: cell-based
T2 sequence (P25101 whole entry): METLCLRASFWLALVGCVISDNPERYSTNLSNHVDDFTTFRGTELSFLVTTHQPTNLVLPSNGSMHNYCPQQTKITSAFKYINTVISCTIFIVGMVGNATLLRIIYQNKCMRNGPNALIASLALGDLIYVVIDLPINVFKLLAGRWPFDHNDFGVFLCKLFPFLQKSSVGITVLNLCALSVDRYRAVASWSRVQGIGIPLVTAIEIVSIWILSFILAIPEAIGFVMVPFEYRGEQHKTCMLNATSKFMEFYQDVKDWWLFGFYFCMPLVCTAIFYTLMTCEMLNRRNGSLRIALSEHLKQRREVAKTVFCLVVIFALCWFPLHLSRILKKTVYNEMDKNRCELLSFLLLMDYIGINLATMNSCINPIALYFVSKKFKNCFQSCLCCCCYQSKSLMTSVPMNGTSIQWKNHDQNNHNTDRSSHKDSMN

[3] = biological target: T3, Endothelin receptor type B (Sus scrofa, UniProt P35463); test: Inhibitory activity against 125 I-labeled ET-1 binding to Endothelin B receptor in porcine cerebellum membranes; format: cell membranes, Membrane
T3 sequence (P35463 whole entry): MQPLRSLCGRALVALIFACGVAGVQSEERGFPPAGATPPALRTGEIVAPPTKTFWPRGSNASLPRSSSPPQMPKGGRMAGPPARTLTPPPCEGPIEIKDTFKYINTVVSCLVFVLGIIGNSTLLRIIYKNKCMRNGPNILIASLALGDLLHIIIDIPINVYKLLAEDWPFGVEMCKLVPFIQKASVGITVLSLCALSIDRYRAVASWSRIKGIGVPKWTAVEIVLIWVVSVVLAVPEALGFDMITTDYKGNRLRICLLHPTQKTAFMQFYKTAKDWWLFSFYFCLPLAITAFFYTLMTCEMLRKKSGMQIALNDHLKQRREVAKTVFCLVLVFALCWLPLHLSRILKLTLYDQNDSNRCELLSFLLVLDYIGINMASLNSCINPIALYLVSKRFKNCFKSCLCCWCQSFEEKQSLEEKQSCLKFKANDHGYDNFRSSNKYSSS

Endothelin-1 receptor [4] = biological target: T4, Endothelin-1 receptor (Sus scrofa, UniProt Q29010); test: Inhibitory activity against 125 I-labeled ET-1 binding to Endothelin A receptor in porcine aortic smooth muscle membranes.
T4 sequence (Q29010 whole entry): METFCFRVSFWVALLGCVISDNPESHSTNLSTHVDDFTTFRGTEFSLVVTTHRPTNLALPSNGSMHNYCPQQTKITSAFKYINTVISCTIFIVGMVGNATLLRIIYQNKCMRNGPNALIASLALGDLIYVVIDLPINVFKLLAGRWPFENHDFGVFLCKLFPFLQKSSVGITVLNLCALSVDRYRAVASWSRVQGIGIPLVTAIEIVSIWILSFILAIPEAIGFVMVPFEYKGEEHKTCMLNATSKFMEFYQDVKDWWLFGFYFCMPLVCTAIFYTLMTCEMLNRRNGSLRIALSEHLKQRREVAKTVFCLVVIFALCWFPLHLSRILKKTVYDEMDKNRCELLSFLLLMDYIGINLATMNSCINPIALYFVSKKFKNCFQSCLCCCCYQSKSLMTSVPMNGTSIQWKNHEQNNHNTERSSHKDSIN

| pIC50 [1] | pIC50 (Endothelin-1 receptor [2]) | pIC50 [3] | pIC50 (Endothelin-1 receptor [4]) | SMILES |
| --- | --- | --- | --- | --- |
| 9.10 | 7.80 | – | – | CCCC[C@@H](NC(=O)[C@@H](Cc1c(Br)[nH]c2ccccc12)NC(=O)[C@@H](NC(=O)N1[C@H](C)CCC[C@@H]1C)C1CC1)C(=O)O |
| – | – | 8.92 | 6.55 | CCCC[C@@H](NC(=O)[C@@H](Cc1cn(C(=O)OC)c2ccccc12)NC(=O)[C@H](CC(C)(C)C)NC(=O)N1[C@H](C)CCC[C@@H]1C)C(=O)O |
| 8.40 | 5.21 | – | – | CCCC[C@@H](NC(=O)[C@@H](Cc1c(C#N)[nH]c2ccccc12)NC(=O)[C@@H](NC(=O)N1[C@H](C)CCC[C@@H]1C)C(C)C)C(=O)O |
| – | – | – | 7.66 | CC(C)C[C@@H]1NC(=O)[C@@H](C(C)C)NC(=O)C2CCCN2C(=O)[C@@H](CC(=O)O)NC(=O)[C@@H](Cc2c[nH]c3ccccc23)NC1=O (single isomer, unassigned) [BQ-123] |
